In US20080182859A1 (Curis, Inc., priority 2006, published 2008):
Structures can show the parent of a compound that is named as a salt.

How the values were obtained:
C57BL/6 male mice [1] = assay: DHT-induced alopecia (mouse model of male pattern baldness); format: in vivo; settings: C57BL/6 male mice with subcutaneous DHT pellet (2.5 mg 21 day), dosed topically once, visually graded for hair regrowth
Method: (§1) A mouse model of male pattern baldness is used to investigate the effectiveness of the present compounds for growing hair. Agonists for the sonic hedgehog pathway that act by binding and activating Smoothened were tested in a formulation of 50:30:20 PG:EtOH:water or 5:95 DMSO:acetone vehicle. C57BL/6 male mice (48-52 days old on arrival) from Charles River Labs were used on the study. The mice were housed and cared for according to established procedures. Food and water were ad libitum. On Day 0, the mice were shaved on their lower back, an area of ˜1.5 inches x ˜2 inches with Wahl clippers using a surgical blade. On day −3, the mice were anesthetized with isoflurane, their back was rinsed with a pad of 70% ethanol, a placebo pellet or a DHT pellet (2.5 mg 21 day pellet) were implanted subcutaneously between the shoulder blades with a 10 gauge trochar. DHT pellet transplantation results in maintenance of existing hair follicles in the resting (telogen) phase. The hole was stapled with a sterile autoclip and the mice were returned to their cage after awaking. The mice were dosed topically once and visually graded daily, except weekends, for melanogenesis and hair regrowth of fur in the dosed area (Table 4).
In the absence of treatment with the present compounds, the follicles remain in telogen rather than following the normal time course of the mouse hair cycle.

C57BL/6 male mice [2] = assay: C57BL/6 hair growth after topical dosing; format: in vivo, mouse; settings: shaved lower back, dosed topically once, visually graded for melanogenesis and hair regrowth
Method: as §1

sonic hedgehog pathway [3] = assay: Human hedgehog reporter assay HEPM-GliLuc (HGL); format: cell-based; settings: HepM human embryonic palatal mesenchymal cells, Gli-luciferase reporter
Method in brief: (§2)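 Reporter cells stably selected after gli-luciferase plasmid transfection; test article dosed over 11 points (1:3). Read as luminescence after 24 h treatment in 0.5% serum; activity >20% AMAX versus plate controls deemed active.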

sonic hedgehog pathway [4] = assay: Hedgehog pathway Gli-luciferase reporter assay, S12 cells; format: cell-based; settings: S12 mouse embryonic mesenchymal cells, read-out: S12 Avg. EC50
Method in brief: as §2

sonic hedgehog pathway [5] = assay: Human hedgehog reporter assay Daoy-GliLuc (DGL); format: cell-based; settings: Daoy human medulloblastoma cells, Gli-luciferase reporter; read-out: Daoy Avg. EC50
Method in brief: as §2

sonic hedgehog pathway [6] = assay: Hedgehog pathway Gli-luciferase reporter assay, TM3 cells; format: cell-based; settings: TM3 mouse Leydig cells
Method in brief: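 Luminescence read-out of gli-promoter luciferase in stably transfected cells; 11-point 1:3 dose curves, 24 h compound exposure in 0.5% FBS, ± octyl-modified Hh protein 1–5 ng/ml. AMAX as % of plate low/high controls; EC50 from curve; >20% AMAX counted active.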

SMILES	Androgenetic Alopecia (C57BL/6 male mice [1])	C57BL/6 Hair Growth (C57BL/6 male mice [2])	EC50 (sonic hedgehog pathway [3])	EC50 (sonic hedgehog pathway [4])	EC50 (sonic hedgehog pathway [5])	EC50 (sonic hedgehog pathway [6])
CN[C@H]1CC[C@H](N(Cc2cc(-c3ccccc3)ccc2OC)C(=O)c2sc3ccccc3c2Cl)CC1	yes	yes	–	–	–	–
CN[C@H]1CC[C@H](N(Cc2cc(-c3cc(C)nc(C)c3)ccc2OC)C(=O)c2sc3ccccc3c2Cl)CC1	yes	yes	–	–	–	–
CN[C@H]1CC[C@H](N(Cc2cc(-c3ccc(C(N)=O)cc3)ccc2OC)C(=O)c2sc3c(F)ccc(F)c3c2Cl)CC1	yes	yes	–	–	–	–
CN[C@H]1CC[C@H](N(Cc2cc(-c3ccnc(C)c3)ccc2OC)C(=O)c2sc3ccccc3c2Cl)CC1	yes	yes	–	–	–	–
CN[C@H]1CC[C@H](N(Cc2cc(-c3ccc(N)nc3)ccc2OC)C(=O)c2sc3cccc(F)c3c2Cl)CC1	yes	yes	–	–	–	–
CN[C@H]1CC[C@H](N(Cc2cc(-c3ccc(S(C)(=O)=O)cc3)ccc2OC)C(=O)c2sc3ccccc3c2Cl)CC1	yes	yes	–	–	–	–
CCOc1ccc(-c2ccc(C)nc2)cc1CN(C(=O)c1sc2ccccc2c1Cl)[C@H]1CC[C@H](NC)CC1	–	yes	–	–	–	–
CN[C@H]1CC[C@H](N(Cc2cc(-c3ccnc(C(=O)N(C)C)c3)ccc2OC)C(=O)c2sc3c(F)ccc(F)c3c2Cl)CC1	yes	yes	–	–	–	–
CNC1CCC(N(Cc2cc(-c3ccncc3)ccc2OC)C(=O)c2sc3ccccc3c2Cl)CC1 (stereo not shown)	yes	yes	–	–	–	–
CN[C@H]1CC[C@H](N(Cc2cc(-c3ccc(NS(C)(=O)=O)nc3)ccc2OC)C(=O)c2sc3c(F)ccc(F)c3c2Cl)CC1	–	yes	–	–	–	–
CCOc1ccc(-c2ccc(C#N)cc2)cc1CN(C(=O)c1sc2ccccc2c1Cl)[C@H]1CC[C@H](NC)CC1	–	yes	–	–	–	–
CN[C@H]1CC[C@H](N(Cc2cc(-c3ccnc(C(=O)O)c3)ccc2OC)C(=O)c2sc3c(F)ccc(F)c3c2Cl)CC1	–	no	–	–	–	–
CN[C@H]1CC[C@@H](N(Cc2cc(-c3ccccn3)ccc2OC)C(=O)c2sc3c(F)ccc(F)c3c2Cl)CC1 [Compound 367, 3-Chloro-4,7-difluoro-benzo[b]thiophene-2-carboxylic acid (2-methoxy-5-pyridin-2-yl-benzyl)-(4-methylamino-cyclohexyl)-amide dihydrochloride]	–	–	< 0.05 µM	< 0.05 µM	< 0.05 µM	< 0.05 µM
CN[C@H]1CC[C@H](N(Cc2cc(-c3ccnc(C(=O)OC)c3)ccc2OC)C(=O)c2sc3c(F)ccc(F)c3c2Cl)CC1 [Compound R5, Methyl 4-(3-{[(3-chloro-4,7-difluoro-benzo[b]thiophene-2-carbonyl)-(4-methylamino-cyclohexyl)-amino]-methyl}-4-methoxy-phenyl)-pyridine-2-carboxylate]	–	–	< 0.05 µM	< 0.05 µM	< 0.05 µM	< 0.05 µM
CN[C@H]1CC[C@@H](N(Cc2cc(-c3ccnc(C(=O)N(C)C)c3)ccc2OC)C(=O)c2sc3c(F)ccc(F)c3c2Cl)CC1 [Compound R9, 4-(3-{[(3-Chloro-4,7-difluoro-benzo[b]thiophene-2-carbonyl)-(4-methylamino-cyclohexyl)-amino]-methyl}-4-methoxy-phenyl)-pyridine-2-carboxylic acid dimethylamide dihydrochloride]	–	–	< 0.05 µM	< 0.05 µM	< 0.05 µM	< 0.05 µM
CN[C@H]1CC[C@H](N(Cc2cc(-c3ccnc(C(=O)OC)c3)ccc2OC)C(=O)c2sc3c(F)ccc(F)c3c2Cl)CC1 [drawing 714]	yes	yes	–	–	–	–
